Experiments:
in vitro = conditions: for Vmax for metabolism: Table 1 Vmax 1; for P450 enzyme catalyzing the metabolism: microsomes
Procedure: Mohutsky M, Wrighton S, Ring B. In vitro metabolism: subcellular fractions. In: Pearson P, Wienkers L, editors. Handbook of drug metabolism. New York: Informa Healthcare; 2009. pp. 445-464. […] The incubation was conducted at various time points 0-60 min at 37° C. At the end of incubation, the reactions were quenched, processed, and analyzed by LC-MS/MS.

[1] = type: in vitro ADME, human
Excerpt: In: Pearson P, Wienkers L, editors. Handbook of drug metabolism. New York: Informa Healthcare; 2009. pp. 445-464.

[2] = Metabolite profile by LC-MS in pooled urine of chimeric mice with humanized liver after repeated oral onapristone; type: in vivo; conditions: onapristone 30 mg/kg/day, D11
Procedure: Metabolites were identified using liquid chromatography-mass spectrometry (LC-MS) and mass spectroscopy on pooled plasma, urine, and liver samples. Twenty-seven metabolites were identified in urine samples across dose and sampling time (e.g., 0-24 hours of dosing for each time point).
Mice with humanized livers were generated as described by Meuleman et al., Hepatology 2005, 41 (4):847-856. This humanized liver model is routinely used to assess the metabolism and toxicities of drugs. Kamimura H, Nakada N, Suzuki K, et al. Assessment of chimeric mice with humanized liver as a tool for predicting circulating human metabolites. Drug Metab Pharmacokinet 2010;25(3):223-235. Two weeks following birth, mice were transplanted with primary hepatocytes isolated from the liver of a donor (purchased from BD Genetest). All animals were housed and kept under standard animal protocols. Animals also were observed during the experiment for signs of illness, abnormal behavior and appearance, and any sign of toxicity, or mortality. Animals were treated orally by gavage with 0, 10, and 30 mg/kg of drug once a day up to 31 days. At the end of treatments, blood samples, urine, and liver were collected and processed for LC-MS/MS metabolite identification and profiling. […]

[3] = biological target: T1, progesterone receptor (PR) (Homo sapiens, UniProt P06401); assay: PRE-luciferase reporter assay in 293T and WMPY cells transfected with PR; type: cell-based; conditions: 100 nM
T1 construct: expressed in transfected cells; host or cells: 293T (human embryonic kidney cells) and WMPY (prostatic stromal cell line)
T1 sequence (P06401 1-933): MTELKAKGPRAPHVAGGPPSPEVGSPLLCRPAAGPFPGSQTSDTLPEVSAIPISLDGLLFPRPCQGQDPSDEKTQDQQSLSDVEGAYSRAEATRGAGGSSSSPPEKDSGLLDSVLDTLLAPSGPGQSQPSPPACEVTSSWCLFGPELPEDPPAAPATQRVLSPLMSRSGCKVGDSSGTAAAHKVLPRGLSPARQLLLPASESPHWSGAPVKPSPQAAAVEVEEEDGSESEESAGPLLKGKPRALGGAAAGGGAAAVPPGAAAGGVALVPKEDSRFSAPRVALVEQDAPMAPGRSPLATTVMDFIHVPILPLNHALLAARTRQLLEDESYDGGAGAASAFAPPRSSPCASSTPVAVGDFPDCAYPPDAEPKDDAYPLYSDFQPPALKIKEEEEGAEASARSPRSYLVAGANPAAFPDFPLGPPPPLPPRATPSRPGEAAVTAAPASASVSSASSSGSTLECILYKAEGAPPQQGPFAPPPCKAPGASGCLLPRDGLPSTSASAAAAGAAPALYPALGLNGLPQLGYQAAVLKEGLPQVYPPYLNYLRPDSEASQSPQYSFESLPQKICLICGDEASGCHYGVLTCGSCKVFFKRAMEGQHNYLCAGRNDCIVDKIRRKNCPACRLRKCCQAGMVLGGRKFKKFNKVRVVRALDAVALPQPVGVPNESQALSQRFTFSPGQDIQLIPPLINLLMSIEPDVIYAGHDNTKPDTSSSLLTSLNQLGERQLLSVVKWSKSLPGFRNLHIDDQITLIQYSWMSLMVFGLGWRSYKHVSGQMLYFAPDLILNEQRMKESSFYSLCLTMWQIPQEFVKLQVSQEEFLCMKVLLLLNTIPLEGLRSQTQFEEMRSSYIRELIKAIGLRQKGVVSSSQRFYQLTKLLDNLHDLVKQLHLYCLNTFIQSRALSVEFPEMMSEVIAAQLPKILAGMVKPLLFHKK
Procedure: 293T and WMPY cells were transfected with progesterone receptor (PR) and PRE-luciferase reporter. […] Experiments were repeated in triplicate. […] Because of the metabolic stability of M1 compared to ONA, a blood circulation of 100 nM M1 can be achieved after dosing M1 at 1 mg.

[4] = Concentration in blood circulation after dosing

Structure (SMILES) | Vmax 1 (in vitro; female human liver microsomes) | Vmax 2 (in vitro; female human liver microsomes) | Vmax for metabolism (in vitro; females) | Vmax 1 (in vitro; male human liver microsomes) | Vmax 2 (in vitro; male human liver microsomes) | Vmax for metabolism (in vitro; males) | P450 enzyme catalyzing the metabolism (in vitro) | number of metabolites formed in vitro [1] | metabolite detected by LC-MS in urine [2] | inhibition of PR transcriptional activity [3] | P450 enzyme catalyzing the metabolism (in vitro; both, human) | Km (in vitro; human, Km 1) | Km (in vitro; human, Km 2) | Km (in vitro; male, human, Km 1) | Km (in vitro; male, human, Km 2) | concentration that can be achieved in blood circulation ([4]; after dosing M1 at 1 mg, inferred from metabolic stability of M1) | concentration achieved in blood circulation ([4]; after dosing onapristone at 10 mg QD)
CN(C)c1ccc([C@H]2C[C@]3(C)[C@@H](CC[C@]3(O)CCCO)[C@@H]3CCC4=CC(=O)CCC4=C32)cc1 [onapristone, Onapristone, reference compound] | 1517 pmol/min/mg | 8715 pmol/min/mg | 1517 pmol/min/mg microsomal protein | 1292 pmol/min/mg | 7213 pmol/min/mg | 1292 pmol/min/mg microsomal protein | CYP3A | nine | Ls | fully inhibit | – | – | – | – | – | – | –
CNc1ccc([C@H]2C[C@]3(C)[C@@H](CC[C@]3(O)CCCO)[C@@H]3CCC4=CC(=O)CCC4=C32)cc1 [Metabolite M1, (8S, 11R,13R,14S,17S)-17-hydroxy-17-(3-hydroxypropyl)-13-methyl-11-(4-(methylamino)phenyl)-6,7,8,11,12,13,14,15,16,17-decahydro-1H-cyclopenta[a]phenanthren-3(2H)-one] | 106 pmol/min/mg | 738 pmol/min/mg | 106 pmol/min/mg microsomal protein | 72 pmol/min/mg | 748 pmol/min/mg | 72 pmol/min/mg microsomal protein | – | – | – | fully inhibit | CYP3A and CYP2C | 0.75 µM | 175 µM | 0.96 µM | 129 µM | 100 nM | 10 nM

— US20170266204A1 (ARNO THERAPEUTICS, INC., priority 2016, published 2017)
